Measured values reported in ChEMBL document CHEMBL4052668, “Synthesis and evaluation of symmetric acyclic nucleoside bisphosphonates as inhibitors of the Plasmodium falciparum, Plasmodium vivax and human 6-oxopurine phosphoribosyltransferases and the antimalarial activity of their prodrugs” (Bioorg Med Chem, 2017).
Activity calls are given as the source filed them. The rule behind the calls is not given here.

Key:
[1] = Inhibition of N-terminal hexa-histidine-tagged Plasmodium vivax HGPRT using PRib-PP as substrate in presence of guanine by Hanes plot analysis
[2] = molecular target: T1, Hypoxanthine-guanine phosphoribosyltransferase (Homo sapiens, UniProt P00492); experiment: Inhibition of N-terminal hexa-histidine-tagged human HGPRT using PRib-PP as substrate in presence of guanine by Hanes plot analysis
T1 sequence (P00492 whole entry): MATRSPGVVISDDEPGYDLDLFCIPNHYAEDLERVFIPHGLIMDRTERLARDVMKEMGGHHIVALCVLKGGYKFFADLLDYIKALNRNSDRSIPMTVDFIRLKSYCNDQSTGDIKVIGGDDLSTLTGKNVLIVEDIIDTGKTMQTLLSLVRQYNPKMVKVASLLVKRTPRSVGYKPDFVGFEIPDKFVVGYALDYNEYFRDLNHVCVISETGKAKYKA

[3] = Inhibition of Plasmodium falciparum HGXPRT using PRib-PP as substrate in presence of guanine by Hanes plot analysis
Plasmodium falciparum [4] = experiment: Inhibition of Plasmodium falciparum HGXPRT at 42 uM using PRib-PP as substrate in presence of guanine by spectrophotometric method
[5] = molecular target: T2, Hypoxanthine-guanine phosphoribosyltransferase (Homo sapiens) (UniProt P00492); experiment: Inhibition of N-terminal hexa-histidine-tagged human HGPRT at 42 uM using PRib-PP as substrate in presence of guanine by spectrophotometric analysis
T2 sequence (whole entry): T1 sequence (P00492 whole entry)

Plasmodium vivax [6] = experiment: Inhibition of N-terminal hexa-histidine-tagged Plasmodium vivax HGPRT at 42 uM using PRib-PP as substrate in presence of guanine by spectrophotometric method
Plasmodium falciparum [7] = experiment: Antimalarial activity against Plasmodium falciparum D6 trophozoites assessed as reduction in [3H]-hypoxanthine incorporation preincubated for 96 hrs followed by [3H]-hypoxanthine addition at 48 hrs post start of experiment; type: functional
[8] = Cytotoxicity against human A549 cells after 4 days by coulter counting method; type: cell-based
Plasmodium falciparum [9] = experiment: Antimalarial activity against chloroquine/pyrimethamine-resistant Plasmodium falciparum W2 trophozoites assessed as reduction in [3H]-hypoxanthine incorporation preincubated for 96 hrs followed by [3H]-hypoxanthine addition at 48 hrs post start of experiment; type: functional
Plasmodium falciparum [10] = experiment: Inhibition of Plasmodium falciparum HGXPRT at 32 uM using PRib-PP as substrate in presence of guanine by spectrophotometric method
[11] = Stability of the compound in pH 7 solution; type: physicochemical; details: buffer
Plasmodium vivax [12] = experiment: Inhibition of N-terminal hexa-histidine-tagged Plasmodium vivax HGPRT at 29 uM using PRib-PP as substrate in presence of guanine by spectrophotometric method
Plasmodium falciparum [13] = experiment: Inhibition of Plasmodium falciparum HGXPRT at 29 uM using PRib-PP as substrate in presence of guanine by spectrophotometric method
Plasmodium vivax [14] = experiment: Inhibition of N-terminal hexa-histidine-tagged Plasmodium vivax HGPRT at 31 uM using PRib-PP as substrate in presence of guanine by spectrophotometric method
Plasmodium falciparum [15] = experiment: Inhibition of Plasmodium falciparum HGXPRT at 31 uM using PRib-PP as substrate in presence of guanine by spectrophotometric method
Plasmodium falciparum [16] = experiment: Inhibition of Plasmodium falciparum HGXPRT at 46 uM using PRib-PP as substrate in presence of guanine by spectrophotometric method
Plasmodium vivax [17] = experiment: Inhibition of N-terminal hexa-histidine-tagged Plasmodium vivax HGPRT at 35 uM using PRib-PP as substrate in presence of guanine by spectrophotometric method
Plasmodium falciparum [18] = experiment: Inhibition of Plasmodium falciparum HGXPRT at 35 uM using PRib-PP as substrate in presence of guanine by spectrophotometric method
[19] = molecular target: T2, Hypoxanthine-guanine phosphoribosyltransferase (Homo sapiens); experiment: Inhibition of N-terminal hexa-histidine-tagged human HGPRT at 35 uM using PRib-PP as substrate in presence of guanine by spectrophotometric analysis

Nc1nc2c(ncn2CC(COCCP(=O)(O)O)COCCP(=O)(O)O)c(=O)[nH]1
Ki [1]: 0.16 µM
Ki [2]: 0.1 µM

Nc1nc2c(ccn2C(COCCP(=O)(O)O)COCCP(=O)(O)O)c(=O)[nH]1
Ki [1]: 49 µM
Ki [2]: 5 µM
Ki [3]: 6 µM

O=c1[nH]cnc2c1ccn2C(COCCP(=O)(O)O)COCCP(=O)(O)O
inhibition (Plasmodium falciparum [4]): inactive
inhibition [5]: inactive
inhibition (Plasmodium vivax [6]): inactive

Nc1nc2c(nc(Br)n2C(COCCP(=O)(O)O)COCCP(=O)(O)O)c(=O)[nH]1
Ki [1]: 153 µM
Ki [2]: 19 µM
Ki [3]: 4 µM

CCOC(=O)[C@H](Cc1ccccc1)NP(=O)(CCOCC(COCCP(=O)(N[C@@H](Cc1ccccc1)C(=O)OCC)N[C@@H](Cc1ccccc1)C(=O)OCC)Cn1c(Br)nc2c(=O)[nH]c(N)nc21)N[C@@H](Cc1ccccc1)C(=O)OCC
IC50 (Plasmodium falciparum [7]): 22.1 µM
CC50 at 96 h [8]: 94 µM
IC50 (Plasmodium falciparum [9]): 21.3 µM

Nc1nc2c(nc(Br)n2CC(COCP(=O)(O)O)COCP(=O)(O)O)c(=O)[nH]1
Ki [1]: 89 µM
Ki [2]: 4 µM
Ki [3]: 1 µM

Nc1nc2c(nc(Br)n2CC(COCCP(=O)(O)O)COCCP(=O)(O)O)c(=O)[nH]1
Ki [1]: 1.6 µM
Ki [2]: 0.25 µM
inhibition (Plasmodium falciparum [10]): inactive

CCOC(=O)[C@H](Cc1ccccc1)NP(=O)(CCOCC(COCCP(=O)(N[C@@H](Cc1ccccc1)C(=O)OCC)N[C@@H](Cc1ccccc1)C(=O)OCC)Cn1ccc2c(=O)[nH]c(N)nc21)N[C@@H](Cc1ccccc1)C(=O)OCC
Stability [11]: Stable
IC50 (Plasmodium falciparum [7]): 0.8 µM
CC50 at 96 h [8]: 95 µM
IC50 (Plasmodium falciparum [9]): 2.1 µM

CCOC(=O)[C@H](Cc1ccccc1)NP(=O)(CCOCC(COCCP(=O)(N[C@@H](Cc1ccccc1)C(=O)OCC)N[C@@H](Cc1ccccc1)C(=O)OCC)n1cnc2c(=O)[nH]cnc21)N[C@@H](Cc1ccccc1)C(=O)OCC
Stability [11]: Stable
IC50 (Plasmodium falciparum [7]): 1.5 µM
CC50 at 96 h [8]: > 300 µM
IC50 (Plasmodium falciparum [9]): 1.7 µM

Nc1nc2c(ncn2C(COCCP(=O)(O)O)COCCP(=O)(O)O)c(=O)[nH]1
Ki [1]: 21 µM
Ki [2]: 0.3 µM
Ki [3]: 0.2 µM

O=c1[nH]cnc2c1ncn2C(COCCP(=O)(O)O)COCCP(=O)(O)O
Ki [1]: 21 µM
Ki [2]: 3 µM
Ki [3]: 0.7 µM

CCOC(=O)[C@H](Cc1ccccc1)NP(=O)(CCOCC(COCCP(=O)(N[C@@H](Cc1ccccc1)C(=O)OCC)N[C@@H](Cc1ccccc1)C(=O)OCC)n1ccc2c(=O)[nH]c(N)nc21)N[C@@H](Cc1ccccc1)C(=O)OCC
Stability [11]: Stable
IC50 (Plasmodium falciparum [7]): 0.8 µM
CC50 at 96 h [8]: > 300 µM
IC50 (Plasmodium falciparum [9]): 1.1 µM

O=c1[nH]cnc2c1nc(Br)n2CC(COCCP(=O)(O)O)COCCP(=O)(O)O
Ki [2]: 9.7 µM
inhibition (Plasmodium vivax [12]): inactive
inhibition (Plasmodium falciparum [13]): inactive

CCOC(=O)[C@H](Cc1ccccc1)NP(=O)(CCOCC(COCCP(=O)(N[C@@H](Cc1ccccc1)C(=O)OCC)N[C@@H](Cc1ccccc1)C(=O)OCC)n1ccc2c(=O)[nH]cnc21)N[C@@H](Cc1ccccc1)C(=O)OCC
Stability [11]: Stable
CC50 at 96 h [8]: 130 µM

CCOC(=O)[C@H](Cc1ccccc1)NP(=O)(CCOCC(COCCP(=O)(N[C@@H](Cc1ccccc1)C(=O)OCC)N[C@@H](Cc1ccccc1)C(=O)OCC)Cn1c(Br)nc2c(=O)[nH]cnc21)N[C@@H](Cc1ccccc1)C(=O)OCC
CC50 at 96 h [8]: 43 µM

Nc1nc2c(ccn2CC(COCCP(=O)(O)O)COCCP(=O)(O)O)c(=O)[nH]1
Ki [1]: 1.5 µM
Ki [2]: 1 µM

CCOC(=O)[C@H](Cc1ccccc1)NP(=O)(CCOCC(COCCP(=O)(N[C@@H](Cc1ccccc1)C(=O)OCC)N[C@@H](Cc1ccccc1)C(=O)OCC)n1c(Br)nc2c(=O)[nH]c(N)nc21)N[C@@H](Cc1ccccc1)C(=O)OCC
IC50 (Plasmodium falciparum [7]): 4.4 µM
IC50 (Plasmodium falciparum [9]): 7 µM

CCOC(=O)[C@H](Cc1ccccc1)NP(=O)(CCOCC(COCCP(=O)(N[C@@H](Cc1ccccc1)C(=O)OCC)N[C@@H](Cc1ccccc1)C(=O)OCC)Cn1ccc2c(=O)[nH]cnc21)N[C@@H](Cc1ccccc1)C(=O)OCC
Stability [11]: Stable
CC50 at 96 h [8]: 23 µM

CCOC(=O)[C@H](Cc1ccccc1)NP(=O)(CCOCC(COCCP(=O)(N[C@@H](Cc1ccccc1)C(=O)OCC)N[C@@H](Cc1ccccc1)C(=O)OCC)Cn1cnc2c(=O)[nH]c(N)nc21)N[C@@H](Cc1ccccc1)C(=O)OCC
Stability [11]: Stable
IC50 (Plasmodium falciparum [7]): 5.1 µM
CC50 at 96 h [8]: > 300 µM
IC50 (Plasmodium falciparum [9]): 6.9 µM

CCOC(=O)[C@H](Cc1ccccc1)NP(=O)(CCOCC(COCCP(=O)(N[C@@H](Cc1ccccc1)C(=O)OCC)N[C@@H](Cc1ccccc1)C(=O)OCC)Cn1cnc2c(=O)[nH]cnc21)N[C@@H](Cc1ccccc1)C(=O)OCC
Stability [11]: Stable
IC50 (Plasmodium falciparum [7]): 1.7 µM
CC50 at 96 h [8]: 66 µM
IC50 (Plasmodium falciparum [9]): 4.6 µM

O=c1[nH]cnc2c1ccn2CC(COCCP(=O)(O)O)COCCP(=O)(O)O
Ki [2]: 17 µM
inhibition (Plasmodium vivax [14]): inactive
inhibition (Plasmodium falciparum [15]): inactive

O=c1[nH]cnc2c1ncn2CC(COCCP(=O)(O)O)COCCP(=O)(O)O
Ki [1]: 6 µM
Ki [2]: 1.5 µM
inhibition (Plasmodium falciparum [16]): inactive

CCOC(=O)[C@H](Cc1ccccc1)NP(=O)(CCOCC(COCCP(=O)(N[C@@H](Cc1ccccc1)C(=O)OCC)N[C@@H](Cc1ccccc1)C(=O)OCC)n1cnc2c(=O)[nH]c(N)nc21)N[C@@H](Cc1ccccc1)C(=O)OCC
Stability [11]: Stable
IC50 (Plasmodium falciparum [7]): 10 µM
CC50 at 96 h [8]: > 300 µM
IC50 (Plasmodium falciparum [9]): 9.4 µM

O=c1[nH]cnc2c1nc(Br)n2C(COCCP(=O)(O)O)COCCP(=O)(O)O
inhibition (Plasmodium vivax [17]): inactive
inhibition (Plasmodium falciparum [18]): inactive
inhibition [19]: inactive

CCOC(=O)[C@H](Cc1ccccc1)NP(=O)(CCOCC(COCCP(=O)(N[C@@H](Cc1ccccc1)C(=O)OCC)N[C@@H](Cc1ccccc1)C(=O)OCC)n1c(Br)nc2c(=O)[nH]cnc21)N[C@@H](Cc1ccccc1)C(=O)OCC
CC50 at 96 h [8]: 278 µM
